Where two headings read alike, the source gives them in different places. Each block holds one compound with its values, some of them ahead of it.
Tested on: phosphate uptake by rabbit intestinal Brush Border Membrane Vesicles (BBMV)
Assay: 33PO4 uptake in rabbit intestinal BBMV (HTS), phosphate transporter inhibition in vitro
Assay type: biochemical
Settings: for IC50: read-out: IC50
Method: The following example outlines the procedures required for in vitro measurement of the inhibition of phosphate uptake by rabbit intestinal Brush Border Membrane Vesicles (BBMV).
Rabbit Intestinal Brush Border Membrane Vesicles (BBMV) were isolated from mucosal scrapings of the upper small intestine (duodenum) of male New Zealand White rabbits. The scrapings were divided into 2 g aliquots in cryopreservation vials, frozen in liquid nitrogen, and stored at −80° C.
The following procedure was performed for each 2 g sample of BBMV mucosal scraping. Buffer volumes and container sizes were adjusted appropriately for the number of 2 g samples used. The entire preparation was performed on ice, unless otherwise stated.
Mucosal scrapings (2 g per tube) were thawed in a 37° C. water bath for 3 minutes and then placed on ice. The scrapings were suspended with a total of 7.5 ml of 300 MET, and transferred to a 250 mL Corning tube on ice. To the suspension was added 30 mL cold (4° C.) deionized water (dH20). The suspension was homogenized with a tissue homogenizer (Polytron) on high speed for 2 minutes. A stir bar and MgCl2 (81.3 mg) was added. The suspension was mixed well by inverting the closed tube. The suspension was stirred on ice, ensuring that a good vortex is achieved with the stir bar, for 40 minutes. The suspension was transferred to a chilled centrifuge tube and spun at 4000×g for 15 minutes. The supernatant was transferred to a new chilled centrifuge tube and spun at 32000×g for 30 minutes. The supernatant was discarded and the pellet was re-suspended with 34 mL cold 60 MET. The suspension was homogenized with a Dounce homogenizer with 8 strokes. The suspension was transferred to a fresh 250 mL Corning tube. A stir bar and 69.1 mg MgCl2 were added. The suspension was stirred well on ice for 10 minutes. The suspension was transferred to a chilled centrifuge tube and spun at 4000×g for 15 minutes. The supernatant was transferred to a new chilled centrifuge tube and spun at 32000×g for 30 minutes. The supernatant was discarded. At this stage, the preparation could be continued or this pellet (P4) could be frozen in liquid nitrogen and stored at −80° C. When needed, this pellet could be allowed to thaw at room temperature for 5 minutes. Continuing the preparation, the pellet was re-suspended with 34 mL cold 280 MH. The suspension was homogenized in a Dounce homogenize with 8 strokes. The suspension was transferred to a new chilled centrifuge tube and spun at 32000×g for 30 minutes. The supernatant was discarded. To the pellet was added 500 μL 280 MH and the pellet was re-suspended very carefully with a 1 mL tuberculin syringe with a 25-gauge needle with care not to create bubbles. Once the entire pellet was suspended, the suspension was transferred to a chilled 1.5 mL microfuge tube. The suspension was evenly dispersed by bringing the suspension up into the syringe through the 25-gauge needle, and back out again 8 times with care not to create bubbles. The total protein concentration was determined by performing a Bradford Protein Assay. Using that value, the BBMV were diluted with 280 MH to reach approximately 0.5-2.0 mg/mL. The solution was used as soon as possible for uptake studies.
The following experiment was performed using a Beckman Multimek 96-tip robotic pipettor. The following outlines the preparation required to screen one 96-well plate of compounds. However, multiple plates could be screened in one experiment.
To the “Uptake Buffers” was added ^33PO4 to reach 200,000 CPM/19 μL. The buffer solutions were stored at room temperature. The following control solutions were prepared and placed into appropriate wells of a polypropylene, 96-well V-bottom plate (“Hot Stock Plate”):
a. Maximum activity (MAX)−Na Uptake buffer+^33PO4 at 200,000 CPM/19 μL
b. Midline activity (MID)−MAX+100 μM KH2PO4, pH 7.4
c. Minimum activity (MIN)− K Uptake buffer+^33PO4 at 200,000 CPM/19 μL

IC50 (Table 2, phosphate uptake): < 50 µM
Structure (SMILES): O=C(NCc1ccc(Cl)cc1)c1cc(Br)ccc1NS(=O)(=O)c1ccc(OC(F)(F)F)cc1 [Compound 53]

IC50 (Table 13, phosphate uptake): 101 to 500 µM
Structure (SMILES): O=S(=O)(O)c1cc(NS(=O)(=O)c2cccc(C(F)(F)F)c2)ccc1/C=C/c1ccc(NS(=O)(=O)c2cccc(C(F)(F)F)c2)cc1S(=O)(=O)O [Compound 296]

IC50 (Table 2, phosphate uptake): < 50 µM
Structure (SMILES): O=C(Nc1ccccc1Cl)c1cc(Br)ccc1NS(=O)(=O)c1ccc(OC(F)(F)F)cc1 [Compound 50]

IC50 (Table 13, phosphate uptake): 501 to 1000 µM
Structure (SMILES): O=S(=O)(O)c1cc(Nc2nc(Nc3ccccc3)nc(N(CCO)CCO)n2)ccc1/C=C/c1ccc(Nc2nc(Nc3ccccc3)nc(N(CCO)CCO)n2)cc1S(=O)(=O)O [Compound 302]

IC50 (Table 13, phosphate uptake): 501 to 1000 µM
Structure (SMILES): O=S(=O)(O)c1cc(NS(=O)(=O)c2cccc(Cl)c2)ccc1/C=C/c1ccc(NS(=O)(=O)c2cccc(Cl)c2)cc1S(=O)(=O)O [Compound 301]

IC50 (Table 2, phosphate uptake): 101 to 500 µM
Structure (SMILES): COc1ccc(CNC(=O)c2cc(Br)ccc2NS(=O)(=O)c2ccc(OC(F)(F)F)cc2)cc1 [Compound 77]

IC50 (Table 2, phosphate uptake): 101 to 500 µM
Structure (SMILES): O=C(Nc1cccc(Cl)c1)c1cc(Br)ccc1NS(=O)(=O)c1ccc(OC(F)(F)F)cc1 [Compound 78]

IC50 (Table 1, phosphate uptake): 101 to 500 µM
Structure (SMILES): O=C(O)c1cc(Br)ccc1NS(=O)(=O)c1cccc2ccccc12 [Compound 19]

IC50 (Table 2, phosphate uptake): 51 to 100 µM
Structure (SMILES): O=C(Nc1ccccc1Br)c1cc(Br)ccc1NS(=O)(=O)c1ccc(OC(F)(F)F)cc1 [Compound 62]

IC50 (Table 1, phosphate uptake): 101 to 500 µM
Structure (SMILES): O=C(O)c1cc(Br)ccc1NS(=O)(=O)c1ccc(Oc2ccccc2)cc1 [Compound 11]

IC50 (Table 2, phosphate uptake): 101 to 500 µM
Structure (SMILES): CC(C)(C)c1ccc(NC(=O)c2cc(Br)ccc2NS(=O)(=O)c2ccc(OC(F)(F)F)cc2)cc1 [Compound 71]

IC50 (Table 2, phosphate uptake): 51 to 100 µM
Structure (SMILES): O=C(NCc1ccc(Cl)c(Cl)c1)c1cc(Br)ccc1NS(=O)(=O)c1ccc(OC(F)(F)F)cc1 [Compound 63]

IC50 (Table 1, phosphate uptake): 101 to 500 µM
Structure (SMILES): O=C(O)c1cc(Br)ccc1NS(=O)(=O)c1ccc(Cl)cc1 [Compound 27]

Further lines, the compound ahead of its results:

Structure (SMILES): Cn1nc(-c2ccc(Oc3ccccc3)cc2)cc1-c1ccco1 [Compound 244]
IC50 (Table 7, phosphate uptake): > 1500 µM

Structure (SMILES): CCOP(=O)(OCC)c1cc(Br)ccc1NC(=O)c1ccc(Cl)c(Cl)c1 [Compound 267]
IC50 (Table 10, phosphate uptake): 501 to 1000 µM

Structure (SMILES): Cc1cc(C)c(S(=O)(=O)Nc2ccc(Br)cc2C(=O)O)c(C)c1 [Compound 6]
IC50 (Table 1, phosphate uptake): 51 to 100 µM

Structure (SMILES): O=C(CCc1ccc(O)cc1)c1c(O)cc(O)cc1O [Compound 273]
IC50 (Table 11, phosphate uptake): 501 to 1000 µM

Structure (SMILES): O=S(=O)(NCc1ccccc1Cl)c1ccc(OC(F)(F)F)cc1 [Compound 133]
% Inhib. At 100 μM (Table 3, 100 μM compound): 77%

Structure (SMILES): O=C(Nc1ccc(Br)cc1P(=O)(O)O)c1ccc(OC(F)(F)F)cc1 [Compound 268]
IC50 (Table 10, phosphate uptake): > 1500 µM

Structure (SMILES): CCOc1ccc(NC(=O)Nc2ccc(Br)cc2P(=O)(O)O)cc1 [Compound 212]
IC50 (Table 4, phosphate uptake): > 1500 µM

Structure (SMILES): O=C(Nc1cccc(C(F)(F)F)c1)Nc1ccc(Cl)c(Cl)c1 [Compound 216]
% Inhib. at 100 μM (Table 5, 100 μM compound): 95%

Structure (SMILES): CCOC(=O)c1cccc(NC(=O)Nc2ccc(Br)cc2P(=O)(O)O)c1 [Compound 208]
IC50 (Table 4, phosphate uptake): 1000 to 1500 µM

Structure (SMILES): O=C(Nc1ccc(Cl)cc1)Nc1ccc(Br)cc1P(=O)(O)O [Compound 213]
IC50 (Table 4, phosphate uptake): > 1500 µM

Structure (SMILES): CC(C)c1ccc(NC(=O)Nc2ccc(Br)cc2P(=O)(O)O)cc1 [Compound 210]
IC50 (Table 4, phosphate uptake): > 1500 µM

Structure (SMILES): CCCCCc1ccc(S(=O)(=O)Nc2ccc(Br)cc2C(=O)O)cc1 [Compound 28]
IC50 (Table 1, phosphate uptake): 101 to 500 µM

Structure (SMILES): O=C(O)c1cc(Br)ccc1NS(=O)(=O)c1ccccc1[N+](=O)[O-] [Compound 38]
IC50 (Table 1, phosphate uptake): 1000 to 1500 µM

Structure (SMILES): O=C(Nc1cccc(C(F)(F)F)c1)Nc1ccccc1Cl [Compound 223]
% Inhib. at 100 μM (Table 5, 100 μM compound): 85%

Structure (SMILES): O=C(/C=C/c1ccc(Br)cc1)c1cc(Cl)cc(Cl)c1O [Compound 249]
% Inhib. at 100 μM (Table 9, 100 μM compound): 50%

Structure (SMILES): COc1ccc(OC)c(S(=O)(=O)Nc2ccc(Br)cc2C(=O)O)c1 [Compound 35]
IC50 (Table 1, phosphate uptake): 101 to 500 µM

Structure (SMILES): Nc1ccc(/C=C/c2ccc(N)cc2)cc1 [Compound 308]
IC50 (Table 13, phosphate uptake): > 1500 µM
